Test results: patent publication US20230220481A1, “Method for Determining Sensitivity to 2,2'-Dithio-bis-Ethane Sulfonate” (Lantern Pharma Inc., priority 2020, published 2023)

Columns and labels:
[1] = system: nuclear factor erythroid 2-related factor 2 (Nrf2); experiment: Induction of nuclear expression of Nrf2 in NGF-differentiated PC12 cells, western blotting; assay type: cell-based, rat; conditions: PC12 neuron-like cells
Method: PC12 cells were suspended in DMEM containing 7.5% inactivated fetal bovine serum and 7.5% inactivated horse serum. After seeding onto a type I collagen-coated 100 mm culture dish, these cells were incubated for 7 days in the presence of 100 ng/mL NGF for priming. Culture medium was then replaced with Neurobasal™ medium supplemented with N-2 supplement and 2 mM glutamine containing NGF 30 ng/mL, and cells were incubated again for 3 days for differentiation into neuron-like cells. Next, these cells were treated with 2,2′-dithio-bis-ethane sulfonate 6 mM for 1, 2, 4 and 8 hours, or with a known Nrf2 activator, tert-butylhydroquinone (t-BHQ) 30 μM for 3 hours. Nuclear proteins were then extracted from the cells for detection of nuclear expression of Nrf2 by western blotting.

[2] = system: Non-small cell lung cancer cell line HCC827; experiment: Gene expression level changes by whole transcriptome profiling (RNAseq) in HCC827 cells; assay type: cell-based; conditions: 2 h treatment, 1 mM and 15 mM, versus untreated control
Excerpt: Another embodiment includes a method for treating or determining the sensitivity of non-small cell cancer to a 2,2′-dithio-bis-ethane sulfonate treatment by assessing the level of NRF2 (SEQ ID NO: 1) expression and at least one gene selected from the group consisting of: NQO1 (SEQ ID NO: 2), PHGDH (SEQ ID NO: 3), HMOX1 (SEQ ID NO: 4), SLC7A11 (SEQ ID NO: 5), SRXN1 (SEQ ID NO: 6), SOX2(SEQ ID NO: 7), GPX2 (SEQ ID NO: 8), GPX3 (SEQ ID NO: 9), and GPX7(SEQ ID NO: 10). For illustration, non-small cell lung cancer cell line HCC827 was treated for 2 h with 2,2′-dithio-bis-ethane sulfonate alone at concentrations of 1 mM and 15 mM and gene expression level changes were measured by whole transcriptome profiling using RNAseq. A control sample with no treatment for the same duration was used as the baseline gene expression level. A greater than 1.5 to 2-fold expression level change can be indicative of 2, 2′-dithio-bis-ethane sulfonate sensitivity.
Non-small cell lung cancer cell line HCC827 was treated for 2 h with disodium 2,2′-dithio-bis-ethane sulfonate alone at concentrations of 1 mM and 15 mM and gene expression level changes were measured by whole transcriptome profiling using RNAseq. A control sample with no treatment for the same duration was used as the baseline gene expression level. […]

SMILES	time at which nuclear expression of Nrf2 started after the start of treatment ([1]; 6 mM) [h]	time until which apparent expression of Nrf2 persisted after the start of treatment ([1]; 6 mM) [h]	induction of nuclear expression of Nrf2 ([1]; 6 mM, 1, 2, 4 and 8 hours)	gene expression level change of NRF2 biomarker genes (NQO1, PHGDH, HMOX1, SLC7A11, SRXN1, SOX2, GPX2, GPX3, GPX7) [2]	induction of nuclear expression of Nrf2 ([1]; 30 μM, 3 hours)
O=S(=O)([O-])CCSSCCS(=O)(=O)[O-].[Na+].[Na+] [2,2′-dithio-bis-ethane sulfonate, disodium 2,2′-dithio-bis-ethane sulfonate]	1	8	induction of nuclear expression of Nrf2	nine genes are upregulated	–
CC(C)(C)c1cc(O)ccc1O [t-BHQ, tert-butylhydroquinone, reference compound]	–	–	–	–	induction of nuclear expression of Nrf2
